Results from patent publication US20240116985A1, “STAPLED PEPTIDES AND METHODS THEREOF” (priority 2020, published 2024).

What was measured:
[1] = molecular target: T1, full-length beta-Catenin (Uniprot ID P35222) (Homo sapiens, UniProt P35222); test: Fluorescence polarization IC50 (beta-catenin / 5FAM-TCF4 10-53 competition); type: binding; conditions: fluorescence polarization; read-out: beta-Catenin FP IC50
T1 construct: 10 nM full-length beta-Catenin (Uniprot ID P35222)
T1 sequence (P35222 1-781): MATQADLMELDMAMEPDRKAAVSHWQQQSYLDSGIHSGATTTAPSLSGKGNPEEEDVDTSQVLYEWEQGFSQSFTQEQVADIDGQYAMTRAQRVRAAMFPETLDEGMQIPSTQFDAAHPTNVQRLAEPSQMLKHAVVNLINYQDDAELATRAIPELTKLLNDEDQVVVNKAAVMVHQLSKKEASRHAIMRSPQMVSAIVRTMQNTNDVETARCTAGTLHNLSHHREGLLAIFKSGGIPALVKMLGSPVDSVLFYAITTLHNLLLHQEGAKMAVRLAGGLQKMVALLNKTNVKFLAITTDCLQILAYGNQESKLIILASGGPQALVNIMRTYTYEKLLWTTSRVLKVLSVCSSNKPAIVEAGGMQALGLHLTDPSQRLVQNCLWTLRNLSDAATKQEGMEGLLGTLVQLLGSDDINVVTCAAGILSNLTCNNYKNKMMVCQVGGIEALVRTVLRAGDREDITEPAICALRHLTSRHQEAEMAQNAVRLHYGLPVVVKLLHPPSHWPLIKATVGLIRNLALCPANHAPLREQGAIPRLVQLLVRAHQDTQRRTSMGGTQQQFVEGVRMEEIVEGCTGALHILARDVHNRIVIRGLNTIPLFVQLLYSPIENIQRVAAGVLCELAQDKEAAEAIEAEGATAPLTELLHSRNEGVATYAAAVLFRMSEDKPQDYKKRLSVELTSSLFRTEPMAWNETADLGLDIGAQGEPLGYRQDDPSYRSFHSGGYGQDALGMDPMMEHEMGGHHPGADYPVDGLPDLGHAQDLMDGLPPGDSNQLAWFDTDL

[2] = molecular target: T2, beta-catenin/TCF4 engagement (Homo sapiens, UniProt P35222); test: Nano-BRET target engagement assay (B-cat-Halo & TCF4-Luc in HEK293 cells); type: cell-based; conditions: absolute IC50; read-out: NanoBRET Abs IC50
T2 construct: expressed in transfected cells; host or cells: HEK293
T2 sequence (P35222 1-781): T1 sequence (P35222 1-781)

IC50 [1] [nM] | IC50 [2] [nM] | Compound
70 | 8300 | CC(=O)N1CCC[C@]12CC=CCCCC1(CCCC=CCCCOC(=O)N3CC[C@@](C(=O)N[C@@H](Cc4ccccc4C(F)(F)F)C(=O)N[C@@H](Cc4csc5ccccc45)C(=O)N[C@@H](CO)C(N)=O)(C3)NC(=O)[C@H](CC(C)C)NC(=O)[C@H](Cc3ccccc3)NC(=O)[C@H](C)NC(=O)[C@H](C)NC(=O)[C@H](Cc3ccccc3C(=O)O)NC(=O)[C@H](CC(=O)O)NC1=O)NC(=O)[C@H](CC(C)(C)C)NC(=O)[C@H](CC(=O)O)NC2=O (single isomer, unassigned) [I-1661, Ac-PL3-Asp-Npg-B5-Asp-2COOHF-Ala-Ala-Phe-Leu-PyrS2-2F3MeF-BztA-Ser-NH2]
22 | 8000 | CC(=O)N1CCC[C@]12CC=CCCCC1(CCCC=CCCCOC(=O)N3CC[C@@](C(=O)N[C@@H](Cc4ccsc4)C(=O)N[C@@H](Cc4csc5ccccc45)C(=O)N[C@@H](CO)C(N)=O)(C3)NC(=O)[C@H](Cc3ccccc3)NC(=O)[C@H](Cc3ccccc3)NC(=O)[C@H](C)NC(=O)[C@H](C)NC(=O)[C@H](Cc3ccccc3C(=O)O)NC(=O)[C@H](CC(=O)O)NC1=O)NC(=O)[C@H](CC(C)(C)C)NC(=O)[C@H](CC(=O)O)NC2=O (single isomer, unassigned) [I-1664, Ac-PL3-Asp-Npg-B5-Asp-2COOHF-Ala-Ala-Phe-Phe-PyrS2-3Thi-BztA-Ser-NH2]
 | > 20000 | CC(=O)N1CCC[C@]12CC=CCCCC1(CCCC=CCCCCCC[C@@](C)(C(=O)N[C@@H](Cc3ccccc3)C(=O)N[C@@H](Cc3csc4ccccc34)C(=O)N[C@@H](CCC(N)=O)C(N)=O)NC(=O)[C@H](CCO)NC(=O)[C@H](Cc3ccccc3)NC(=O)[C@H](C)NC(=O)[C@H](C)NC(=O)[C@H](CCC(=O)O)NC(=O)[C@H](CC(=O)O)NC1=O)NC(=O)[C@H](CO)NC(=O)[C@H](CC(=O)O)NC2=O (stereo partly drawn) [I-1529, Ac-PL3-Asp-Ser-B5-Asp-Glu-Ala-Ala-Phe-Hse-S8-Phe-BztA-Gln-NH2]
 | 14700 | CCN(CC)C(=O)[C@H](CCC(N)=O)NC(=O)[C@H](Cc1csc2ccccc12)NC(=O)[C@H](Cc1ccsc1)NC(=O)[C@]12CCN(C1)C(=O)OCCCC=CCCCC1(CCCC=CC[C@]3(CCCN3C(C)=O)C(=O)N[C@@H](CC(=O)O)C(=O)N[C@@H](CC(C)(C)C)C(=O)N1)C(=O)N[C@@H](CC(=O)O)C(=O)N[C@@H](CN(CC(=O)O)CC(F)(F)F)C(=O)N[C@@H](C)C(=O)N[C@@H](C)C(=O)N[C@@H](Cc1ccccc1)C(=O)N[C@@H](CC(N)=O)C(=O)N2 (stereo partly drawn) [I-1641, Ac-PL3-Asp-Npg-B5-Asp-TfeGA-Ala-Ala-Phe-Asn-PyrS2-3Thi-BztA-Gln-NEt2]
 | > 20000 | CC(=O)N1CCC[C@]12CC=CCCCC1(CCCC=CCCCOC(=O)N3CC[C@@](C(=O)N[C@@H](Cc4ccsc4)C(=O)N[C@@H](Cc4csc5ccccc45)C(=O)N[C@@H](CCC(N)=O)C(N)=O)(C3)NC(=O)[C@H](CC(N)=O)NC(=O)[C@H](Cc3ccccc3)NC(=O)[C@H](C)NC(=O)C3(CC3)NC(=O)[C@H]([C@@H](C)O)NC(=O)[C@H](CC(N)=O)NC1=O)NC(=O)[C@H](CC(C)(C)C)NC(=O)[C@H](CC(=O)O)NC2=O (stereo partly drawn) [I-2492, Ac-PL3-Asp-Npg-B5-Asn-Thr-Cpg-Ala-Phe-Asn-PyrS2-3Thi-BztA-Gln-NH2]
188 |  | CC(=O)N1CCC[C@]12CC=CCCCC1(CCCC=CCCCCOC(=O)N3CC(C(=O)N[C@@H](Cc4ccccc4C(F)(F)F)C(=O)N[C@@H](Cc4csc5ccccc45)C(=O)N[C@@H](CCC(N)=O)C(N)=O)(C3)NC(=O)[C@H](CC(C)C)NC(=O)[C@H](Cc3ccccc3)NC(=O)[C@H](C)NC(=O)[C@H](C)NC(=O)[C@H](Cc3cccc(C(=O)O)c3)NC(=O)[C@H](CC(=O)O)NC1=O)NC(=O)[C@H](CC(C)(C)C)NC(=O)[C@H](CC(=O)O)NC2=O (stereo partly drawn) [I-2611, Ac-PL3-Asp-Npg-B5-Asp-3COOHF-Ala-Ala-Phe-Leu-Az3-2F3MeF-BztA-Gln-NH2]
85 |  | CC(=O)N1CCC[C@]12CC=CCCCC1(CCCC=CCCCCOC(=O)N3CC(C(=O)N[C@@H](Cc4ccsc4)C(=O)N[C@@H](Cc4csc5ccccc45)C(=O)N[C@@H](CCC(N)=O)C(N)=O)(C3)NC(=O)[C@H](CC(C)C)NC(=O)[C@H](Cc3ccccc3)NC(=O)[C@H](C)NC(=O)[C@H](C)NC(=O)[C@H](Cc3cccc(C(=O)O)c3)NC(=O)[C@H](CC(=O)O)NC1=O)NC(=O)[C@H](CC(C)(C)C)NC(=O)[C@H](CC(=O)O)NC2=O (stereo partly drawn) [I-2612, Ac-PL3-Asp-Npg-B5-Asp-3COOHF-Ala-Ala-Phe-Leu-Az3-3Thi-BztA-Gln-NH2]
183 |  | CC(=O)N1CCC[C@]12CC=CCCCC1(CCCC=CCCCOC(=O)N3CC(C(=O)N[C@@H](Cc4ccccc4C(F)(F)F)C(=O)N[C@@H](Cc4csc5ccccc45)C(=O)N[C@@H](CCC(N)=O)C(N)=O)(C3)NC(=O)[C@H](CC(C)C)NC(=O)[C@H](Cc3ccccc3)NC(=O)[C@H](C)NC(=O)C(C)(C)NC(=O)[C@H](Cc3cccc(C(=O)O)c3)NC(=O)[C@H](CC(=O)O)NC1=O)NC(=O)[C@H](CC(C)(C)C)NC(=O)[C@H](CC(=O)O)NC2=O (stereo partly drawn) [I-2613, Ac-PL3-Asp-Npg-B5-Asp-3COOHF-Aib-Ala-Phe-Leu-Az2-2F3MeF-BztA-Gln-NH2]
97 |  | CC(=O)N1CCC[C@]12CC=CCCCC1(CCCC=CCCCOC(=O)N3CC(C(=O)N[C@@H](Cc4ccccc4C(F)(F)F)C(=O)N[C@@H](Cc4csc5ccccc45)C(=O)N[C@@H](CCC(N)=O)C(N)=O)(C3)NC(=O)[C@H](CC(C)C)NC(=O)[C@H](Cc3ccccc3)NC(=O)[C@H](C)NC(=O)C(C)(C)NC(=O)[C@H](Cc3cccc(C(=O)O)c3)NC(=O)[C@H](CC(=O)O)NC1=O)NC(=O)[C@H](CC(C)(C)C)NC(=O)[C@H](CC(=O)O)NC2=O (stereo partly drawn) [I-2614, Ac-PL3-Asp-Npg-B5-Asp-3COOHF-Aib-Ala-Phe-Leu-Az2-2F3MeF-BztA-Gln-NH2]
115 |  | CC(=O)N1CCC[C@]12CC=CCCCC1(CCCC=CCCCCOC(=O)N3CC(C(=O)N[C@@H](Cc4ccccc4C(F)(F)F)C(=O)N[C@@H](Cc4csc5ccccc45)C(=O)N[C@@H](CCC(N)=O)C(N)=O)(C3)NC(=O)[C@H](CC(C)C)NC(=O)[C@H](Cc3ccccc3)NC(=O)[C@H](C)NC(=O)C(C)(C)NC(=O)[C@H](Cc3cccc(C(=O)O)c3)NC(=O)[C@H](CC(=O)O)NC1=O)NC(=O)[C@H](CC(C)(C)C)NC(=O)[C@H](CC(=O)O)NC2=O (stereo partly drawn) [I-2615, Ac-PL3-Asp-Npg-B5-Asp-3COOHF-Aib-Ala-Phe-Leu-Az3-2F3MeF-BztA-Gln-NH2]
175 |  | CC(=O)N1CCC[C@]12CC=CCCCC1(CCCC=CCCCCOC(=O)N3CC(C(=O)N[C@@H](Cc4ccccc4C(F)(F)F)C(=O)N[C@@H](Cc4csc5ccccc45)C(=O)N[C@@H](CCC(N)=O)C(N)=O)(C3)NC(=O)[C@H](CC(C)C)NC(=O)[C@H](Cc3ccccc3)NC(=O)[C@H](C)NC(=O)C(C)(C)NC(=O)[C@H](Cc3cccc(C(=O)O)c3)NC(=O)[C@H](CC(=O)O)NC1=O)NC(=O)[C@H](CC(C)(C)C)NC(=O)[C@H](CC(=O)O)NC2=O (stereo partly drawn) [I-2616, Ac-PL3-Asp-Npg-B5-Asp-3COOHF-Aib-Ala-Phe-Leu-Az3-2F3MeF-BztA-Gln-NH2]
130 |  | CC(=O)N1CCC[C@]12CC=CCCCC1(CCCC=CCCCOC(=O)N3CC(C(=O)N[C@@H](Cc4ccsc4)C(=O)N[C@@H](Cc4csc5ccccc45)C(=O)N[C@@H](CCC(N)=O)C(N)=O)(C3)NC(=O)[C@H](CC(C)C)NC(=O)[C@H](Cc3ccccc3)NC(=O)[C@H](C)NC(=O)C(C)(C)NC(=O)[C@H](Cc3cccc(C(=O)O)c3)NC(=O)[C@H](CC(=O)O)NC1=O)NC(=O)[C@H](CC(C)(C)C)NC(=O)[C@H](CC(=O)O)NC2=O (stereo partly drawn) [I-2617, Ac-PL3-Asp-Npg-B5-Asp-3COOHF-Aib-Ala-Phe-Leu-Az2-3Thi-BztA-Gln-NH2]
77 |  | CC(=O)N1CCC[C@]12CC=CCCCC1(CCCC=CCCCCOC(=O)N3CC(C(=O)N[C@@H](Cc4ccsc4)C(=O)N[C@@H](Cc4csc5ccccc45)C(=O)N[C@@H](CCC(N)=O)C(N)=O)(C3)NC(=O)[C@H](CC(C)C)NC(=O)[C@H](Cc3ccccc3)NC(=O)[C@H](C)NC(=O)C(C)(C)NC(=O)[C@H](Cc3cccc(C(=O)O)c3)NC(=O)[C@H](CC(=O)O)NC1=O)NC(=O)[C@H](CC(C)(C)C)NC(=O)[C@H](CC(=O)O)NC2=O (stereo partly drawn) [I-2618, Ac-PL3-Asp-Npg-B5-Asp-3COOHF-Aib-Ala-Phe-Leu-Az3-3Thi-BztA-Gln-NH2]
36 |  | CC(=O)N1CCC[C@]12CC=CCCCC1(CCCC=CCCCCOC(=O)N3CC(C(=O)N[C@@H](Cc4ccsc4)C(=O)N[C@@H](Cc4csc5ccccc45)C(=O)N[C@@H](CCC(N)=O)C(N)=O)(C3)NC(=O)[C@H](CC(C)C)NC(=O)[C@H](Cc3ccccc3)NC(=O)[C@H](C)NC(=O)C(C)(C)NC(=O)[C@H](Cc3cccc(C(=O)O)c3)NC(=O)[C@H](CC(=O)O)NC1=O)NC(=O)[C@H](CC(C)(C)C)NC(=O)[C@H](CC(=O)O)NC2=O (stereo partly drawn) [I-2619, Ac-PL3-Asp-Npg-B5-Asp-3COOHF-Aib-Ala-Phe-Leu-Az3-3Thi-BztA-Gln-NH2]
